# Measured values: US12209060B2, “Ketamine derivatives and compositions thereof” (XWPHARMA LTD., priority 2018, dated 2025)
# Where two headings read alike, the source gives them in different places.
# How the values were obtained:
# [1] = cited from earlier work; for Cmax / Tmax / oral bioavailability: humans, orally administered 50 mg tablet, Yanagihara et al. 2003
# [2] = Whole blood stability (ketamine formation), monkey; type: in vitro ADME; conditions: ketamine formed, S-ketamine = 100
# [3] = Whole blood stability (ketamine formation), mouse; type: in vitro ADME; conditions: ketamine formed, S-ketamine = 100
# [4] = In vivo Monkey PK studies; conditions: for AUC(0-∞) / Cmax: S-ketamine in blood
# Protocol: The de-proteinized samples were temporarily held in ice following by storing at −70° C. before bioanalysis.
# (§1) Bio-Analysis: Samples were monitored for parent compound disappearance and ketamine formation in multi-reaction monitoring (MRM) mode by LC-MS/MS system. The mobile phase was performed at a constant flow rate of 0.8 mL/min using a binary solvent system: Solvent A, de-ionized water containing 0.10% formic acid, and Solvent B, methanol containing 0.10% formic acid. MRM data were acquired, and the chromatograms were integrated using Quant Wizard of the version 1.5.2 software (Analyst Software from ABI). A weighted (1/x or 1/x^2) linear regression was used to generate the calibration curve from standards and to calculate the sample concentrations.
# (§2) Pharmacokinetic Data Analysis: The pharmacokinetic parameters were estimated for each subject using the Phoenix™ WinNonlin program, version 6.3 (Phoenix WinNonlin© 2012, Pharsight Corporation, Mountain View, CA). Non-compartmental analysis was performed to generate parameter estimates. The terminal elimination rate constant (λ) was obtained, where possible, by linear regression of the terminal elimination phase of a log-linear plot of the blood concentration-time data. The criteria for λ acceptance were regression of at least three time points from the terminal elimination phase and r^2≥0.85. Half-life was defined as not determined (ND) if the criteria could not be met. Nominal time was used for t1/2 and AUC calculations. The apparent blood terminal elimination half-life (t1/2) was calculated according to the following formula: t1/2=ln(2)/λ. The observed maximum blood concentration (Cmax) and the time to reach the maximum blood concentration (Tmax) were obtained by visual inspection of the experimental data. The area under the blood concentration-time curve of ketamine from time 0 to the last measurable concentration (AUC(0-Last)) was determined by the linear trapezoidal method. The area under the blood concentration-time curve from time 0 to infinity (AUC(0-∞)) was determined by AUC(0-Last)+CLast/λ, in which CLast was the concentration corresponding to the time point of last measurable concentration (TLast).
# [5] = Whole blood stability (ketamine formation), human; type: in vitro ADME; conditions: ketamine formed, S-ketamine = 100
# [6] = In vivo Rat PK Studies; parameters: species or system rats; conditions: oral; bioavailability with respect to S-ketamine; oral dose level 5 μmol/kg to 160 μmol/kg
# Protocol: (§3) In vivo Mouse/Rat PK Studies: Pharmacokinetic profiles of the test compounds were evaluated in mice and rats […] (S-ketamine or prodrugs) administration. The oral dose level was 5 μmol/kg to 160 μmol/kg administered at a volume of 10 mL/kg. Blood samples were collected from the facial veins using heparinated tubes at pre-dose and 0.05, 0.17, 0.5, 1, 2, 3, 4, 6, and 8 hours post-dose following intravenous administration, and withdrawn at pre-dose and 0.17, 0.5, 1, 2, 3, 4, 5, 6, and 8 hours post-dose following oral administration. In each mouse PK study, mice were sub-grouped for a sparse sampling strategy. Each mouse provided two blood samples at different collection times. Blood samples were collected from alternating groups of three mice per time point.
# (§4) Non-compartmental analysis was performed to generate parameter estimates.
# [7] = Whole blood stability (ketamine formation), rat; type: in vitro ADME; conditions: 3 μM, 37° C., up to 60 min, ketamine formed, S-ketamine = 100
# Protocol: Whole Blood Stability Assay: Test compounds were incubated in 37° C. pre-warmed rat whole blood at 3 μM (final acetonitrile concentration 1%) for up to 60 min at 37° C. One-hundred 100 μL aliquots of spiked sample solutions were taken at pre-defined time points (0 to 60 min) post incubation, and were immediately extracted by adding 5 volumes of extraction solvent and then centrifuged at 20,000×g for 5 min. The supernatant fractions were analyzed with LC-MS/MS for the amount of the test compound remaining and ketamine.
# [8] = Whole blood stability (ketamine formation), dog; type: in vitro ADME; conditions: ketamine formed, S-ketamine = 100
# [9] = In vivo Mouse PK Studies; parameters: species or system mice; conditions: oral; bioavailability with respect to S-ketamine; oral dose level 5 μmol/kg to 160 μmol/kg
# Protocol: as §3, §4
# [10] = In vivo Dog PK Studies; conditions: for AUC(0-last) / Cmax: S-ketamine in blood
# Protocol: In vivo Dog PK Studies: Three male Beagle dogs were housed individually. Dogs in the oral administration groups were fasted overnight before treatment but with free access to water. Dogs in the IV groups had free access to food and water. For S-ketamine HCl salt, a single dose of […] was administered to each dog via intravenous (IV) administration. The vehicle used for S-ketamine HCl salt was saline. For other test compounds, a single dose of each test compound was administered to each dog via oral gavage (n=3/group). The vehicles used for dosing the test compounds were dependent on the properties of the test compound. Blood samples were collected at specified time-points (pre-dose, 10 min, 30 min, 1 h, 2 h, 3 h, 4 h, 5 h, 6 h, 8 h, post-dose) following administration to individual dogs within IV and PO group. To prevent compound degradation, drawn blood samples were immediately mixed in a ratio of 1:3 (v/v) with acetonitrile (containing 0.1% formic acid). The de-proteinized samples were temporarily held in ice following by storing at −70° C. before bioanalysis. The concentrations of analytes in the blood were determined by LC-MS/MS. Various pharmacokinetic parameters were calculated using Phoenix™ WinNonlin® software. To quantify the bioconversion efficiency of the test compounds in the circulation system, the bioavailability of S-ketamine after PO administration was calculated.
# as §1, §2
# [11] = oral, bioavailability with respect to S-ketamine (Table 5 summary)
smiles,measurement,setting,value
CN[C@@]1(c2ccccc2Cl)CCCCC1=O [(R)-ketamine],Cmax,[1],about 41 ng/mL
same,Tmax,[1],about 31 min
same,oral bioavailability,[1],about 18%
"CNC1(c2ccccc2Cl)CCCCC1=O (centres unmarked) [Ketamine, 2-(2-chiorophenyl)-2-(methylamino)cyclohexan-1-one]",oral bioavailability in humans (% F),[1],about 20%
CN[C@]1(c2ccccc2Cl)CCCCC1=O [S-ketamine],Monkey Ket (%),[2],100%
same,Mouse Ket (%),[3],100%
same,Cmax,[1],about 41 ng/mL
same,Tmax,[1],about 31 min
same,oral bioavailability,[1],about 18%
same,AUC(0-∞),"[4]; monkeys, IV @5 μmol/kg",2.325 µM·h
same,Cmax,"[4]; monkeys, IV @5 μmol/kg",1200 nM
same,AUC(0-∞),"[4]; monkeys, PO @10 μmol/kg",0.034 µM·h
same,Cmax,"[4]; monkeys, PO @10 μmol/kg",13 nM
same,F,"[4]; monkeys, PO @10 μmol/kg, bioavailability of S-ketamine",0.7%
same,Monkey F,[4]; [11],0.7%
same,Human Ket (%),[5],100%
same,Rat F,[6],4.9%
same,Rat Ket (%),[7],100%
same,Dog Ket (%),[8],100%
same,Mouse F,[9],5.6%
same,AUC(0-last),"[10]; dogs, IV @3.75 μmol/kg",0.244 µM·h
same,Cmax,"[10]; dogs, IV @3.75 μmol/kg",669 nM
same,AUC(0-last),"[10]; dogs, PO 15 μmol/kg",0.017 µM·h
same,Cmax,"[10]; dogs, PO 15 μmol/kg",9 nM
same,F,"[10]; dogs, PO 15 μmol/kg, bioavailability of S-ketamine",1.8%
same,Dog F,[10]; [11],1.8%
